US7138361B2, “Herbicidal heterocycles” (E. I. du Pont de Nemours and Company, priority 2000, dated 2006)

Columns and labels:
Assay type in all cases: in vivo
[1] = system: Surinam grass (Brachiaria decumbens); assay: Test B postemergence
Procedure, shortened: (§1)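 Greenhouse test: chemicals are formulated in a surfactant-containing non-phytotoxic solvent and applied either preemergence to planted seeds or postemergence to plants 2 to 18 cm tall. Response is rated visually versus controls after 13 to 15 days, 0 meaning no effect and 100 complete control.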

[2] = system: barnyardgrass (Echinochloa crus-galli); assay: Test B postemergence
Procedure, shortened: as §1

[3] = system: blackgrass (Alopecurus myosuroides); assay: Test B postemergence
Procedure, shortened: as §1

[4] = system: cocklebur (Xanthium strumarium); assay: Test B postemergence
Procedure, shortened: as §1

corn (Zea mays) [5] = assay: Test B postemergence
Procedure, shortened: as §1

[6] = system: crabgrass (Digitaria sanguinalis); assay: Test B postemergence
Procedure, shortened: as §1

[7] = system: giant foxtail (Setaria faberii); assay: Test B postemergence
Procedure, shortened: as §1

[8] = system: lambsquarters (Chenopodium album); assay: Test B postemergence
Procedure, shortened: as §1

[9] = system: morning glory (Ipomoea hederacea); assay: Test B postemergence
Procedure, shortened: as §1

[10] = system: pigweed (Amaranthus retroflexus); assay: Test B postemergence
Procedure, shortened: as §1

[11] = system: velvetleaf (Abutilon theophrasti); assay: Test B postemergence
Procedure, shortened: as §1

[12] = system: wheat (Triticum aestivum); assay: Test B postemergence
Procedure, shortened: as §1

wild oat (Avena fatua) = assay: Test B postemergence
Procedure, shortened: as §1

[13] = system: Surinam grass (Brachiaria decumbens); assay: Test B preemergence
Procedure, shortened: as §1

[14] = system: barnyardgrass (Echinochloa crus-galli); assay: Test B preemergence
Procedure, shortened: as §1

[15] = system: cocklebur (Xanthium strumarium); assay: Test B preemergence
Procedure, shortened: as §1

corn (Zea mays) [16] = assay: Test B preemergence
Procedure, shortened: as §1

[17] = system: crabgrass (Digitaria sanguinalis); assay: Test B preemergence
Procedure, shortened: as §1

[18] = system: giant foxtail (Setaria faberii); assay: Test B preemergence
Procedure, shortened: as §1

[19] = system: lambsquarters (Chenopodium album); assay: Test B preemergence
Procedure, shortened: as §1

[20] = system: morning glory (Ipomoea hederacea); assay: Test B preemergence
Procedure, shortened: as §1

[21] = system: pigweed (Amaranthus retroflexus); assay: Test B preemergence
Procedure, shortened: as §1

rice (Oryza saliva) = assay: Test B preemergence
Procedure, shortened: as §1

[22] = system: velvetleaf (Abutilon theophrasti); assay: Test B preemergence
Procedure, shortened: as §1

[23] = system: lambsquarters (Chenopodium album); assay: Test C preemergence
Procedure, shortened: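 Seeds are planted and treated before emergence; for the postemergence test, plants at 1- to 4-leaf stage (2–18 cm) receive the same formulation, a solvent blend containing surfactant. Plants stay in the greenhouse 12–14 days, then response is scored visually from 0 (none) to 100 (complete control).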

[24] = Rate 125 g/ha, scale 0 to 100, 0 no effect, 100 complete control
[25] = Rate 500 g/ha, scale 0 (no effect) to 100 (complete control), 13 to 15 days
[26] = Preemergence, Rate 500 g/ha, scale 0 to 100, 0 no effect, 100 complete control
[27] = preemergence, Rate 125 g/ha, scale of 0 to 100 where 0 is no effect and 100 is complete control, 13 to 15 days

SMILES: CCC(CC)c1ccn(C2CCN(c3ccc(Br)c(OC)c3)C2=O)n1 (stereo not shown) [Compound 143]
- Plant response rating, Surinam grass [1, 24]: 0
- Plant response rating, Surinam grass [1, 25]: 0
- Plant response rating, Barnyardgrass [2, 24]: 0
- Plant response rating, Barnyardgrass [2, 25]: 70
- Plant response rating, Blackgrass [3, 24]: 0
- Plant response rating, Blackgrass [3, 25]: 0
- Plant response rating, Cocklebur [4, 24]: 0
- Plant response rating, Cocklebur [4, 25]: 100
- Plant response rating, Corn (corn (Zea mays) [5]; [24]): 0
- Plant response rating, Corn (corn (Zea mays) [5]; [25]): 0
- Plant response rating, Crabgrass [6, 24]: 0
- Plant response rating, Crabgrass [6, 25]: 80
- Plant response rating, Foxtail, Giant [7, 24]: 30
- Plant response rating, Foxtail, Giant [7, 25]: 80
- Plant response rating, Lambsquarters [8, 24]: 80
- Plant response rating, Lambsquarters [8, 25]: 100
- Plant response rating, Morningglory [9, 24]: 30
- Plant response rating, Morningglory [9, 25]: 100
- Plant response rating, Pigweed [10, 24]: 70
- Plant response rating, Pigweed [10, 25]: 90
- Plant response rating, Velvetleaf [11, 24]: 50
- Plant response rating, Velvetleaf [11, 25]: 70
- Plant response rating, Wheat [12, 24]: 0
- Plant response rating, Wheat [12, 25]: 0
- Plant response rating, Wild Oat (wild oat (Avena fatua); [24]): 0
- Plant response rating, Wild Oat (wild oat (Avena fatua); [25]): 0
- Plant response rating, Surinam grass [13, 26]: 90
- Plant response rating, Surinam grass [13, 27]: 80
- Plant response rating, Barnyardgrass [14, 26]: 100
- Plant response rating, Barnyardgrass [14, 27]: 100
- Plant response rating, Cocklebur [15, 26]: 30
- Plant response rating, Cocklebur [15, 27]: 0
- Plant response rating, Corn (corn (Zea mays) [16]; [26]): 20
- Plant response rating, Corn (corn (Zea mays) [16]; [27]): 0
- Plant response rating, Crabgrass [17, 26]: 100
- Plant response rating, Crabgrass [17, 27]: 100
- Plant response rating, Foxtail, Giant [18, 26]: 100
- Plant response rating, Foxtail, Giant [18, 27]: 100
- Plant response rating, Lambsquarters [19, 26]: 100
- Plant response rating, Lambsquarters [19, 27]: 100
- Plant response rating, Morningglory [20, 26]: 70
- Plant response rating, Morningglory [20, 27]: 20
- Plant response rating, Pigweed [21, 26]: 100
- Plant response rating, Pigweed [21, 27]: 100
- Plant response rating, Rice (rice (Oryza saliva); [26]): 30
- Plant response rating, Rice (rice (Oryza saliva); [27]): 0
- Plant response rating, Velvetleaf [22, 26]: 80
- Plant response rating, Velvetleaf [22, 27]: 60
- Plant response rating, Lambsquarters [23, 24]: 100
- Plant response rating, Lambsquarters ([23]; preemergence, Rate 62 g/ha, scale 0 to 100): 100
- Plant response rating (0 to 100), Lambsquarters ([23]; preemergence, Rate 500 g/ha, visual evaluation after 12 to 14 days): 100
- Plant response rating, Lambsquarters ([23]; preemergence, Rate 250 g/ha, scale 0 to 100, 0 no effect, 100 complete control): 100
